According to patent publication US20240327393A1 (SIRONAX LTD., priority 2021, published 2024):

system: HT-1080 (ATCC, CCL-121) cells; assay: HT-1080 cell viability assay with ferroptosis inducer RSL3 (Cell Titer-Glo); type: cell-based; settings: Homo sapiens; HT-1080 cells treated with RSL3; 3-fold, 10-point dilution, 1.1 μM highest concentration; Table 2; read-out: EC50 (nM), ferroptosis inhibitory activity
Summary of the method: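 HT-1080 cells (6000 per well) were cultured overnight at 37 °C, then co-treated with RSL3 and compound in a 3-fold, 10-point series topping at 1.1 μM. Viability was read by CellTiter-Glo luminescence and normalized to untreated controls. EC50 came from a sigmoidal non-linear regression fit.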

SMILES	EC50
CN1C(=O)COc2cc(Nc3ccc(C(C)(C)C)cc3)ccc21 [Compound 47, 7-((4-(tert-butyl)phenyl)amino)-4-methyl-2H-benzo[b][1,4]oxazin-3(4H)-one]	0.1 to 100 nM
Cc1cc(N2CCC(C(F)(F)F)CC2)ncc1Nc1ccc2c(c1)n(C)c(=O)n2C [Compound 379, 1,3-dimethyl-5-((4-methyl-6-(4-(trifluoromethyl)piperidin-1-yl)pyridin-3-yl)amino)-1,3-dihydro-2H-benzo[d]imidazol-2-one]	0.1 to 100 nM
CC1CN(c2ccc(Nc3ccc4c(c3)OCC(=O)N4C)cc2F)CC(C)O1 (centres unmarked) [Compound 73, 7-((4-(2,6-dimethylmorpholino)-3-fluorophenyl)amino)-4-methyl-2H-benzo[b][1,4]oxazin-3(4H)-one]	0.1 to 100 nM
O=C1c2ccc(Nc3ccc(N4CCC(C(F)(F)F)CC4)cc3)cc2CN1C1CC1 [Compound 209, 2-cyclopropyl-5-((4-(4-(trifluoromethyl)piperidin-1-yl)phenyl)amino) isoindolin-1-one]	0.1 to 100 nM
NC(=O)NCCn1ncc2cc(Nc3ccc(N4CCC(C(F)(F)F)CC4)cc3)ccc21 [Compound 421, 1-(2-(5-((4-(4-(trifluoromethyl)piperidin-1-yl)phenyl)amino)-1H-indazol-1-yl)ethyl)urea]	0.1 to 100 nM
NC(=O)CCn1cc2cc(Nc3ccc(N4CCC(C(F)(F)F)CC4)cc3)ccc2n1 [Compound 413, 3-(5-((4-(4-(trifluoromethyl)piperidin-1-yl)phenyl)amino)-2H-indazol-2-yl)propanamide]	0.1 to 100 nM
Cn1ccc2cc(Nc3ccc(N4CCC(C(F)(F)F)CC4)cc3)ccc21 [Compound 347, 1-methyl-N-(4-(4-(trifluoromethyl)piperidin-1-yl)phenyl)-1H-indol-5-amine]	0.1 to 100 nM
CCNC(=O)c1cn(C)c2ccc(Nc3ccc(N4CCC(C)CC4)cc3)cc12 [Compound 365, N-ethyl-1-methyl-5-((4-(4-methylpiperidin-1-yl)phenyl)amino)-1H-indole-3-carboxamide]	0.1 to 100 nM
COC1(C(F)(F)F)CCN(c2ccc(Nc3ccc4c(c3)OCC(=O)N4C)c(C)c2)CC1 [Compound 129, 7-((4-(4-methoxy-4-(trifluoromethyl)piperidin-1-yl)-2-methylphenyl)amino)-4-methyl-2H-benzo[b][1,4]oxazin-3(4H)-one]	0.1 to 100 nM
CC1(C)CCC(c2ccc(Oc3ccc4nc(N)sc4c3)cc2)CC1 [Compound 408, 6-(4-(4,4-dimethylcyclohexyl)phenoxy)benzo[d]thiazol-2-amine]	0.1 to 100 nM
FC(F)(F)C1CCN(c2ccc(Nc3ccc4ncoc4c3)cc2)CC1 [Compound 360, N-(4-(4-(trifluoromethyl)piperidin-1-yl)phenyl)benzo[d]oxazol-6-amine]	0.1 to 100 nM
CN1Cc2cc(Nc3ccc(N4CCCCC4)cc3)ccc2C1=O [Compound 217, 2-methyl-5-((4-(piperidin-1-yl)phenyl)amino)isoindolin-1-one]	0.1 to 100 nM
CN1Cc2cc(Nc3ccc(N4CCC(C(F)(F)F)CC4)cc3)ccc2C1=O [Compound 173, 2-methyl-5-((4-(4-(trifluoromethyl)piperidin-1-yl)phenyl)amino) isoindolin-1-one]	0.1 to 100 nM
CCN(CC)c1nc2ccc(Nc3ccc(N4CCC(C(F)(F)F)CC4)cc3)cc2n1C [Compound 402, N2,N2-diethyl-1-methyl-N6-(4-(4-(trifluoromethyl)piperidin-1-yl)phenyl)-1H-benzo[d]imidazole-2,6-diamine]	0.1 to 100 nM
Cn1c(=O)n(C)c2cc(Nc3ccc4nccn4c3)ccc21 [Compound 310, 5-(imidazo[1,2-a]pyridin-6-ylamino)-1,3-dimethyl-1,3-dihydro-2H-benzo[d]imidazol-2-one]	0.1 to 100 nM
Cn1cnc(N2Cc3cc(Nc4ccc(N5CCC(C(F)(F)F)CC5)cc4)ccc3C2=O)c1 [Compound 206, 2-(1-methyl-1H-imidazol-4-yl)-5-((4-(4-(trifluoromethyl)piperidin-1-yl)phenyl)amino)isoindolin-1-one]	0.1 to 100 nM
CN1CCc2cc(Nc3ccc4c(c3)n(C)c(=O)n4C)ccc21 [Compound 289, 1,3-dimethyl-5-((1-methylindolin-5-yl)amino)-1,3-dihydro-2H-benzo[d]imidazol-2-one]	0.1 to 100 nM
Cn1c(=O)c2ccc(Nc3ccc(N4CCC(C(F)(F)F)CC4)cc3)cc2n1C [Compound 224, 1,2-dimethyl-6-((4-(4-(trifluoromethyl)piperidin-1-yl)phenyl)amino)-1,2-dihydro-3H-indazol-3-one]	0.1 to 100 nM
CN(C)CCCN1Cc2cc(Nc3ccc(N4CCC(C(F)(F)F)CC4)cc3)ccc2C1=O [Compound 200, 2-(3-(dimethylamino)propyl)-5-((4-(4-(trifluoromethyl)piperidin-1-yl)phenyl)amino)isoindolin-1-one]	0.1 to 100 nM
Cc1cc(N2CCC(C(F)(F)F)CC2)c(F)cc1Nc1ccc2c(c1)OCC(=O)N2C [Compound 59, 7-((5-fluoro-2-methyl-4-(4-(trifluoromethyl)piperidin-1-yl)phenyl)amino)-4-methyl-2H-benzo[b][1,4]oxazin-3(4H)-one]	0.1 to 100 nM
CN1Cc2ccc(Nc3ccc(N4CCC(C(F)(F)F)CC4)cc3)cc2C1=O [Compound 171, 2-methyl-6-((4-(4-(trifluoromethyl)piperidin-1-yl)phenyl)amino) isoindolin-1-one]	0.1 to 100 nM

same assay, conditions: Homo sapiens; HT-1080 cells treated with RSL3; 3-fold, 10-point dilution, 1.1 μM highest concentration; Table 3; read-out: EC50 (nM), ferroptosis inhibitory activity

SMILES	EC50
CN1C(=O)COc2cc(Nc3ccc(N4CCC(C(F)(F)F)CC4)cc3Cl)ccc21 [Compound 451, 7-((2-chloro-4-(4-(trifluoromethyl)piperidin-1-yl)phenyl)amino)-4-methyl-2H-benzo[b][1,4]oxazin-3(4H)-one]	0.1 to 100 nM
Cc1nc(N2CCOC(C)(C)C2)ccc1Nc1ccc2c(c1)OCC(=O)N2 [Compound 500, 7-((6-(2,2-dimethylmorpholino)-2-methylpyridin-3-yl)amino)-2H-benzo[b][1,4]oxazin-3(4H)-one]	0.1 to 100 nM
C[C@H]1CN(c2ccc(Nc3ccc4c(c3)OCC(=O)N4)cc2)CCN1C(=O)C(F)(F)F [Compound 553, (S)-7-((4-(3-methyl-4-(2,2,2-trifluoroacetyl)piperazin-1-yl)phenyl)amino)-2H-benzo[b][1,4]oxazin-3(4H)-one]	0.1 to 100 nM
CC1(O)CCN(c2ccc(Nc3ccc4c(c3)OCC(=O)N4)cc2)CC1 [Compound 540, 7-((4-(4-hydroxy-4-methylpiperidin-1-yl)phenyl)amino)-2H-benzo[b][1,4]oxazin-3(4H)-one]	100 to 1000 nM
Cc1cc(N2CCC(C(F)(F)F)CC2)ccc1Nc1ccc2c(c1)CNC(=O)N2 [Compound 535, 6-((2-methyl-4-(4-(trifluoromethyl)piperidin-1-yl)phenyl)amino)-3,4-dihydroquinazolin-2(1H)-one]	0.1 to 100 nM
COc1cc(Nc2cnc3c(c2)OCC(=O)N3)ccc1N1CCC(C(F)(F)F)CC1 [Compound 465, 7-((3-methoxy-4-(4-(trifluoromethyl)piperidin-1-yl)phenyl)amino)-2H-pyrido[3,2-b][1,4]oxazin-3(4H)-one]	0.1 to 100 nM
Cc1cc(N2CC(C)(F)C2)ccc1Nc1ccc2c(c1)OCC(=O)N2 [Compound 595, 7-((4-(3-fluoro-3-methylazetidin-1-yl)-2-methylphenyl)amino)-2H-benzo[b][1,4]oxazin-3(4H)-one]	0.1 to 100 nM
COCCOC1CCN(c2ccc(Nc3ccc4c(c3)OCC(=O)N4)c(C)c2)CC1 [Compound 505]	0.1 to 100 nM
